Patent EP3271365B1, “BI[…] AGENTS CONTAINING THE CTI PHARMACOPHORE” (Pfizer Inc., priority 2015, dated 2016)

Columns and labels:
Experiment in all cases: Cytotoxicity assay for payloads (MTS cell viability)
Assay type in all cases: cell-based
[1] = test system: N87 (human gastric carcinoma derived from metastatic liver site); details: 96 h, N87 cells, incubated four days, read-out: Free Payload Potencies N87 (IC50)
Protocol: (§1) Cancer cell lines were obtained from ATCC (Manassas, VA). N87 (human gastric carcinoma derived from metastatic liver site). HL60 (leukemia) and MDA-MB-361 DYT2 (human breast carcinoma MDA-MB-361) were grown in RPMI 1640 media . All media were supplemented with 10% fetal bovine serum, 1% sodium pyruvate, and 1% L-glutamine (Invitrogen, Grand Island, NY). Human umbilical vein endothelial cells (HUVEC) were obtained from Lonza (Allendale, NJ) and maintained in EGM2 media supplemented with EGM-2 SingleQuots (Lonza # CC-4176). All cells were maintained in a humidified incubator (37°C, 5% CO2).
(§2) Cells in 100 µl medium were cultured in a 96-well plate. Cancer cell lines treated with the indicated compounds by adding 50 µl of 3X stocks in duplicate at 10 concentrations. Cells were incubated with compounds for four days, then 30 µl of CellTiter® 96 AQueous One MTS Solution (Promega Cat # G3582) was added to the cells, incubated 1.5 hr at 37°C, then absorbance measured at 490 nm on a Victor plate reader (Perkin Elmer, Waltham, MA). Relative cell viability was determined as a percentage of untreated control wells. IC50 values were calculated using four parameter logistic model #203 with XLfit v4.2 (IDBS, Guildford, Surry, UK).

HL60 (leukemia) = details: Homo sapiens, HL-60, 96 h, HL60 cells, incubated four days, read-out: Free Payload Potencies HL60 (IC50)
Protocol: as §1, §2

[2] = test system: MDA-MB-361 DYT2 (human breast carcinoma MDA-MB-361); details: 96 h, MDA-MB-361 DYT2 cells, incubated four days, read-out: Free Payload Potencies DYT2 (IC50)
Protocol: as §1, §2

Compound | IC50 [1] | IC50 (HL60 (leukemia)) | IC50 [2]
Cc1csc2c(O)cc3c(c12)[C@H](CCl)CN3C(=O)CCCC(=O)N1C[C@@H](CCl)c2c1cc(O[C@@H]1O[C@H](C(=O)O)[C@@H](O)[C@H](O)[C@H]1O)c1scc(C)c21 [Compound 57, (8S)-8-(chloromethyl)-6-{5-[(8S)-8-(chloromethyl)-4-hydroxy-1-methyl-7,8-dihydro-6H-thieno[3,2-e]indol-6-yl]-5-oxopentanoyl}-1-methyl-7,8-dihydro-6H-thieno[3,2-e]indol-4-yl beta-D-glucopyranosiduronic acid] | 11 nM | 0.873 nM | 37.6 nM
CC(=O)Oc1cc2c(c3sc(C)cc13)[C@H](CCl)CN2C(=O)C12CC(C(=O)N3C[C@@H](CCl)c4c3cc(OC(C)=O)c3cc(C)sc43)(C1)C2 [Compound 17, bicyclo[1.1.1]pentane-1,3-diylbis[carbonyl(8S)-8-(chloromethyl)-2-methyl-7,8-dihydro-6H-thieno[2,3-e]indole-6,4-diyl] diacetate] | 1.3 nM | 0.084 nM | 6.06 nM
CC(=O)Oc1cc2c(c3c(C)csc13)[C@H](CCl)CN2C(=O)C12CC(C(=O)N3C[C@@H](CCl)c4c3cc(OC(C)=O)c3scc(C)c43)(C1)C2 [Compound 7, (8S,8'S)-(bicyclo[1.1.1]pentane-1,3-dicarbonyl)bis(8-(chloromethyl)-1-methyl-7,8-dihydro-6H-thieno[3,2-e]indole-6,4-diyl) diacetate] | 0.022 nM | < 0.005 nM | 0.185 nM
CC(=O)Oc1cc2c(c3c(C)csc13)[C@H](CCl)CN2C(=O)CCCC(=O)N1C[C@@H](CCl)c2c1cc(OC(C)=O)c1scc(C)c21 [Compound 24, (8S,8'S)-glutaroylbis(8-(chloromethyl)-1-methyl-7,8-dihydro-6H-thieno[3,2-e]indole-6,4-diyl) diacetate] | 0.024 nM | < 0.005 nM | 0.171 nM
CC(=O)Oc1cc2c(c3c(C)csc13)[C@@H](CCl)CN2C(=O)CCCC(=O)N1C[C@H](CCl)c2c1cc(OC(C)=O)c1scc(C)c21 [Compound 25, (8R,8'R)-glutaroylbis(8-(chloromethyl)-1-methyl-7,8-dihydro-6H-thieno[3,2-e]indole-6,4-diyl) diacetate] | 41.6 nM | – | > 100 nM
Cc1csc2c(O)cc3c(c12)[C@H](CCl)CN3C(=O)CCCC(=O)N1C[C@@H](CCl)c2c1cc(OP(=O)(O)O)c1scc(C)c21 [Compound 61, (8S)-8-(chloromethyl)-6-{5-[(8S)-8-(chloromethyl)-4-hydroxy-1-methyl-7,8-dihydro-6H-thieno[3,2-e]indol-6-yl]-5-oxopentanoyl}-1-methyl-7,8-dihydro-6H-thieno[3,2-e]indol-4-yl dihydrogen phosphate] | 13.6 nM | 0.806 nM | 28.6 nM
CC(=O)Oc1cc2c(c3c(C)csc13)[C@@H](CCl)CN2C(=O)C12CC(C(=O)N3C[C@H](CCl)c4c3cc(OC(C)=O)c3scc(C)c43)(C1)C2 [Compound 12, (8R,8'R)-(bicyclo[1.1.1]pentane-1,3-dicarbonyl)bis(8-(chloromethyl)-1-methyl-7,8-dihydro-6H-thieno[3,2-e]indole-6,4-diyl) diacetate] | 2.26 nM | 0.18 nM | 5.08 nM
